Data from ChEMBL document CHEMBL5154648, “Antitumor activity of novel POLA1-HDAC11 dual inhibitors” (Eur J Med Chem, 2022).
Activity calls are given as the source filed them. The rule behind the calls is not given here.

Key:
MDA-MB-231 = assay: Antiproliferative activity against human MDA-MB-231 cells incubated for 24 hrs followed by incubating in drug-free medium for 48 hrs and measured by SRB assay; type: functional, cell-based
[1] = target: T1, DNA polymerase alpha catalytic subunit (Homo sapiens) (UniProt P09884); assay: Inhibition of recombinant POLA1 (unknown origin) using 5-Fluorescein-rGrGrArArArGrGrArCrGrArArArCrA-3 as substrate at 10 to 50 uM and measured by primer extension assay; settings: dose 10-50 µM
T1 sequence (whole entry): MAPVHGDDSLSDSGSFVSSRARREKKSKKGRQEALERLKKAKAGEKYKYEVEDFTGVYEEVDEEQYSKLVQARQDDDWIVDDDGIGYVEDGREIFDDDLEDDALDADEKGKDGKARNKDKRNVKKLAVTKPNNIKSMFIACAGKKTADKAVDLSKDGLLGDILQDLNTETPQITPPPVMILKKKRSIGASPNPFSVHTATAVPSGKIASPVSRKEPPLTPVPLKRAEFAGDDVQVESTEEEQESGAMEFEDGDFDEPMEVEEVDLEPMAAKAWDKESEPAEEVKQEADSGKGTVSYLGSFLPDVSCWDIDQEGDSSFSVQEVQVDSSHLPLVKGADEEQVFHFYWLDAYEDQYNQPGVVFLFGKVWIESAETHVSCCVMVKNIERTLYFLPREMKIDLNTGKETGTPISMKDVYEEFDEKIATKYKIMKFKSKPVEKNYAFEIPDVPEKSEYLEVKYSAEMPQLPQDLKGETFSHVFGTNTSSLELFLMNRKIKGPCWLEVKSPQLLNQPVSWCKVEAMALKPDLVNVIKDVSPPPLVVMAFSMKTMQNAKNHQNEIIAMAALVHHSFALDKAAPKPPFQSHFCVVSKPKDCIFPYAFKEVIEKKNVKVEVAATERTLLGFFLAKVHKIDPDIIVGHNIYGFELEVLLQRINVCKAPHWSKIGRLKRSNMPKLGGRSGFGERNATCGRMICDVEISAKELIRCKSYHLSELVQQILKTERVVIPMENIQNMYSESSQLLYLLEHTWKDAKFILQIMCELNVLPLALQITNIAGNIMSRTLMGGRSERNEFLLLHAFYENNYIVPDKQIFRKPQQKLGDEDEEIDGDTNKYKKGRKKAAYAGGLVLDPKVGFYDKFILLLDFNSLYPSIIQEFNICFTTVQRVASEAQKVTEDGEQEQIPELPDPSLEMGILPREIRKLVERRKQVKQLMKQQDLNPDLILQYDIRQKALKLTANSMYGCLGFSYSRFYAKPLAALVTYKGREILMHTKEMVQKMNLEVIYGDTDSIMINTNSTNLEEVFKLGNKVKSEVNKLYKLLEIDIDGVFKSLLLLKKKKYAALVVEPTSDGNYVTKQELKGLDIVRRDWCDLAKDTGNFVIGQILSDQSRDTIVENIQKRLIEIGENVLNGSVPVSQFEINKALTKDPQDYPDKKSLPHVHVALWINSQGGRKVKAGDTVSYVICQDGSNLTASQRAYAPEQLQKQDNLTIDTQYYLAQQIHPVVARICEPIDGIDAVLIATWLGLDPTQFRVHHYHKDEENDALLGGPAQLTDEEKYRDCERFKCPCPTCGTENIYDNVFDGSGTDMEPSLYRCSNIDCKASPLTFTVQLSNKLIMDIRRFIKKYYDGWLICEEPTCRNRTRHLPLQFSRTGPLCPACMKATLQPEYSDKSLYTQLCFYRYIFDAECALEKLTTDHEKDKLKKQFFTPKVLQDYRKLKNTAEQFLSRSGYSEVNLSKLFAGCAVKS

NCI-H460 [2] = assay: Induction of DNA damage in human NCI-H460 cells at 0.1 to 0.4 uM assessed as increase in p-H2AX levels and measured by Western blot analysis; type: functional, cell-based; settings: dose 0.1-0.4 µM
NCI-H460 [3] = assay: Antiproliferative activity against human NCI-H460 cells at 0.1 to 0.4 uM assessed as reduction in p-ERK1/2 level and measured by Western blot analysis; type: functional, cell-based; settings: dose 0.1-0.4 µM
NCI-H460 [4] = assay: Antiproliferative activity against human NCI-H460 cells at 0.1 to 0.4 uM assessed as reduction in PIN1 level and measured by Western blot analysis; type: functional, cell-based; settings: dose 0.1-0.4 µM
[5] = target: T2, Histone deacetylase 11 (Homo sapiens) (UniProt Q96DB2); assay: Inhibition of HDAC11 in human NCI-H460 cells at 0.1 to 0.4 uM assessed as induction of p53 acetylation and measured by Western blot analysis; type: cell-based; settings: dose 0.1-0.4 µM
T2 sequence (whole entry): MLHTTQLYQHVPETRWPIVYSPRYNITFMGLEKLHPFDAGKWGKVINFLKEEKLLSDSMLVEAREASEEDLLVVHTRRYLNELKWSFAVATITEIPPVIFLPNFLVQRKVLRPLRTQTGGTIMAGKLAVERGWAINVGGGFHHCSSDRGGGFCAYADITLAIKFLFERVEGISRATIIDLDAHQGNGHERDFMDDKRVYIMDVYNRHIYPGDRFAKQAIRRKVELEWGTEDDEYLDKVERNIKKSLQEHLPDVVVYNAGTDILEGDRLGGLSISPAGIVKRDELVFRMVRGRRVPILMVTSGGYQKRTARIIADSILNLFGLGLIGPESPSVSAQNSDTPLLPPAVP

A2780 [6] = assay: Induction of cell cycle arrest in human A2780 cells assessed as accumulation of cells at G2/M phase at 0.6 uM after 72 hrs by flow cytometry (reference value: 15%); type: functional
MM473 [7] = assay: Induction of cell cycle arrest in human MM473-Luc cells assessed as accumulation of cells at sub-G1 phase at 1.2 uM after 72 hrs by flow cytometry (reference value: 1.3%); type: functional
[8] = Induction of cell cycle arrest in human H460-R9A cells assessed as accumulation of cells at S phase at 2.8 uM after 72 hrs by flow cytometry (reference value: 34.5%); type: functional
MM473 [9] = assay: Antitumor activity against human MM473 cells xenografted in mouse assessed as tumor growth inhibition at 50 mg/kg, po bid administered 5 times a week for 3 weeks; type: functional; settings: MM473, 504 h, read-out: TGI
NCI-H460 [10] = assay: Induction of cell cycle arrest in human NCI-H460 cells assessed as accumulation of cells at S phase at 0.26 uM after 72 hrs by flow cytometry (reference value: 32.1%); type: functional
A2780 [11] = assay: Induction of cell cycle arrest in human A2780 cells assessed as accumulation of cells at G2/M phase at 0.95 uM after 72 hrs by flow cytometry (reference value: 15%); type: functional
MM473 [12] = assay: Induction of cell cycle arrest in human MM473-Luc cells assessed as accumulation of cells at S phase at 1.4 uM after 72 hrs by flow cytometry (reference value: 13.7%); type: functional
MM473 [13] = assay: Induction of cell cycle arrest in human MM473-Luc cells assessed as accumulation of cells at G2/M phase at 1.4 uM after 72 hrs by flow cytometry (reference value: 11.7%); type: functional
[14] = Induction of cell cycle arrest in human H460-R9A cells assessed as accumulation of cells at sub-G1 phase at 2.2 uM after 72 hrs by flow cytometry (reference value: 1.5%); type: functional

IC50 (MDA-MB-231)	inhibition [1]	inhibition [5]	Compound	Activity (NCI-H460 [2])	Activity (NCI-H460 [3])	Activity (NCI-H460 [4])	Activity (A2780 [6])	Activity (MM473 [7])	Activity [8]	inhibition in vivo at 50 mg/kg (MM473 [9])	Activity (NCI-H460 [10])	Activity (A2780 [11])	Activity (MM473 [12])	Activity (MM473 [13])	Activity [14]
1900 nM	Active	Active	O=C(O)C=Cc1ccc(-c2ccc(OCC(=O)NO)c(C34CC5CC(CC(C5)C3)C4)c2)cc1	Active	Active	Active	6.5%	39.7%	37.4%	77%	–	–	–	–	–
–	Active	Active	CC(Oc1ccc(-c2ccc(C=CC(=O)O)cc2)cc1C12CC3CC(CC(C3)C1)C2)C(=O)NO (stereo unspecified)	Active	Active	Active	–	–	–	–	81.4%	3%	81.6%	16.1%	–
1100 nM	–	–	O=C(O)C=Cc1ccc(-c2ccc(O)c(C34CC5CC(CC(C5)C3)C4)c2)cc1	–	–	–	–	–	–	–	–	–	–	–	26.7%
